pIC50: −log10 of the molar value. Where “and” joins values, the source holds several entries; their conditions need not be identical. Equal entries are not always repeated.

The source of these data is ChEMBL document CHEMBL3886711, “Substituted tetrahydrocarbazole and carbazole carboxamide compounds” (2016).

For the experiment, the target named is Tyrosine-protein kinase JAK2 (Homo sapiens, UniProt O60674). The experiment in a line: Jak2 Tyrosine Kinase Assay: The assays were performed in V-bottom 384-well plates. The final assay volume was 30 μl prepared from 15 μl additions of enzyme and substrates (fluoresceinated peptide and ATP) and test compounds in assay buffer (100 mM HEPES pH 7.4, 10 mM MgCl2, 25 mM beta-glycerolphosphate, […] Brij 35 surfactant and 4 mM DTT). The reaction was initiated by the combination of Jak2.
Tyrosine-protein kinase JAK2, sequence (O60674 whole entry): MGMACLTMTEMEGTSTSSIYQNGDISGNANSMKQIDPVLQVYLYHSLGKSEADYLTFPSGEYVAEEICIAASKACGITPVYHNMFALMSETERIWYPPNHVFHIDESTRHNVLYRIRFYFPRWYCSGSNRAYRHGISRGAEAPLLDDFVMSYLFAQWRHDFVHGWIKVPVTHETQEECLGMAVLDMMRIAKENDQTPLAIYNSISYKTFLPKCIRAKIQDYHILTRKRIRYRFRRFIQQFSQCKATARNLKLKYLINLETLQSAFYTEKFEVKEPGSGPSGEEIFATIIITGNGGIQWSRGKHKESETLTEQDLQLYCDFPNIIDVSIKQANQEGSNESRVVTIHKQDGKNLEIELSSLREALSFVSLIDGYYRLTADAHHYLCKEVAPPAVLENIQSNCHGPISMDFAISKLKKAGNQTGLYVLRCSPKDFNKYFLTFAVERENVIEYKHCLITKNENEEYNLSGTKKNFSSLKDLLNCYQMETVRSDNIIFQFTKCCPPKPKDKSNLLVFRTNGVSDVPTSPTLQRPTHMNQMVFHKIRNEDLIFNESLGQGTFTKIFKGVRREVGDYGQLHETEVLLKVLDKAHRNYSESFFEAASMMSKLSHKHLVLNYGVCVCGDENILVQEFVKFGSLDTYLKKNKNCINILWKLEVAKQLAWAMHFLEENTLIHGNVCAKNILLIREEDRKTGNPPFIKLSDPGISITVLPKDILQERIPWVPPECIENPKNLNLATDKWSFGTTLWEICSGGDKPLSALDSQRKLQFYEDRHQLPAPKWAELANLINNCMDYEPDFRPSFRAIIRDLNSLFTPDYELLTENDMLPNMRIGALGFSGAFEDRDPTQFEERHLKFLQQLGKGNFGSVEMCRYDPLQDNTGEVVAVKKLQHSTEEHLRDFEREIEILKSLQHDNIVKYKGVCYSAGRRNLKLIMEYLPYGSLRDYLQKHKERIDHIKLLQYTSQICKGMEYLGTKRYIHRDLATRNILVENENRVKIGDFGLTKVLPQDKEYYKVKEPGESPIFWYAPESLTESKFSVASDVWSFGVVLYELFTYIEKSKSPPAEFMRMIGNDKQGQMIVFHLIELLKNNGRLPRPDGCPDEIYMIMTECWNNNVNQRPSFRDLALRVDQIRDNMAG

On to `Cc1c(-c2c(Cl)cc(C(N)=O)c3[nH]c4cc(C(C)(C)O)ccc4c23)cccc1-n1c(=O)cc2c(Cl)cccn2c1=O`, for which the pIC50 is 5.85 and 6.01. The result for `Cc1c(-c2c(F)cc(C(N)=O)c3[nH]c4cc(C(C)(C)O)ccc4c23)cccc1-n1c(=O)[nH]c2c(F)cccc2c1=O` reads 5.77.

A word on the pIC50: it is the IC50 on a negative log10 scale, so that one unit is a factor of ten.
